The record followed here is patent US9399625B2, “Acridone compounds” (Oregon Health & Science University, priority 2006, dated 2016).

Where two headings read alike, the source gives them in different places. A value given as a limit tells only on which side of the number the result lay.

What is called IC50 is the point on the concentration scale where inhibition reaches its midpoint. By Ki is commonly meant a measure of affinity in units of concentration, obtained from inhibition or displacement.

For series [1], the system named is CQ-sensitive D6 strain of P. falciparum. Kind of series: In vitro antimalarial activity, SYBR Green MSF assay, D6. In kind it is cell-based. The note with it: Plasmodium falciparum, D6. An excerpt:
This example describes the screening of disclosed antimalarial acridones against the CQ-sensitive D6 strain and the MDR Dd2 strain of P. falciparum for in vitro antimalarial activity.

The target of series [2] is T1, recombinant human norepinephrine transporter (hNET) (Homo sapiens, UniProt P23975).
T1 construct: expressed in transfected cells
T1 sequence (P23975 whole entry): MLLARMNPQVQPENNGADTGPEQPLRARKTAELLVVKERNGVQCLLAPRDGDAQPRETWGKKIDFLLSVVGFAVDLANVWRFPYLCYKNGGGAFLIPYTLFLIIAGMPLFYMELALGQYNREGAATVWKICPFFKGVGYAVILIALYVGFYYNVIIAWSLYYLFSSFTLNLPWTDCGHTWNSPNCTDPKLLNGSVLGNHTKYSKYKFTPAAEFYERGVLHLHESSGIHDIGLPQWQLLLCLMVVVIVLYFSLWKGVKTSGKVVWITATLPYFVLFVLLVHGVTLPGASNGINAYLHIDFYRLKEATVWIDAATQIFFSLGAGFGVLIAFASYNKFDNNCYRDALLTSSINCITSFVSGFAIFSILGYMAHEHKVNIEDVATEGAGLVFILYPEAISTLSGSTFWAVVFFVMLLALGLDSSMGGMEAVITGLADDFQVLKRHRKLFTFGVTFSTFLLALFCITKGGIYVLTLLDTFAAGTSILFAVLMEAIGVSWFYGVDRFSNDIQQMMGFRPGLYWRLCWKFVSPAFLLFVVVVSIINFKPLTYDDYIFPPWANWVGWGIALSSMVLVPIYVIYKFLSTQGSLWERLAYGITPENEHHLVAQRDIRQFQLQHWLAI
As to the kind of experiment: [125I]RTI-55 binding, HEK-hNET.

Series [3] has as its system QN-sensitive P. yoelii (K). Kind of series: In vivo synergism T3.5 and quinine, 6-day Thompson test in mice. The note with it: alone or fixed-ratio combination (dose of each). The procedure:
In vivo synergism was assessed using the 6-day Thompson test in mice infected with QN-sensitive P. yoelii (K), comparing the efficacy of T3.5 alone, QN alone and T3.5:QN combinations (Table 7). Dosages were established using a rigorous fixed-ratio combination dosing protocol and results were assessed using Calcusyn software to determine synergy. As in the case of the in vitro combination, there was evident in vivo synergism.

A short description of series [4]: Metabolic stability and fate in hepatic S9 fraction with NADPH. The class given is in vitro ADME, murine. The note with it: 50 μM, NADPH 1 mM, 10, 30 and 60 min. The procedure:
This example investigates the metabolic stability and fate of T3.5 in the presence of NADPH and a murine hepatic S9 fraction. Hepatic S-9 fractions were incubated with 50 μM T3.5 in the presence of NADPH (1 mM) for 10, 30 and 60 min. HPLC was conducted with a Hypersil Gold column that is stable at high pH. […] The full scan mass spectrum had the isotopic ratio expected for the chlorine substituted acridone ring. […] The two unresolved peaks most likely represent de-ethylation of the tertiary amine on each side chain.
A second de-ethylation also occurred with the prolonged incubation as evidenced by the peak at 17.5 min when monitored at m/z 388.1 (loss of m/z=56). Another dealkylated metabolite was monitored at m/z 345.1 and corresponds to the loss of the triethylamine side chain (loss of m/z=99) from the acridone ring. The dealkylation could occur from either the aryl ether side chain or from the acridone ring nitrogen. The later would result in the production of the active compound T2. […] In addition to the dealkylated products, a hydroxylated metabolite was also detected by monitoring at m/z 460.2 (addition of m/z=16). The hydroxylation could occur on the acridone ring or on one of the primary carbons on the ethylamine side chains. Further MS/MS experiments will help establish the site of hydroxylation.

Series [5] can be described thus: Heme-binding affinity (spectrophotometric titration). The note with it: Table 4. The text has this:
With continued reference to FIG. 1, panel B illustrates the spectrophotometric titration curve of the heme:3,6-bis-ε-(N,N-diethylamino)-amyloxy xanthone (C5) complex. The apparent binding constant was derived from the best fit (solid line) of a 1:1 (heme dimer:C5) association model. […] Panels A and B show the fluorescence localization of C5 and LysoTracker Red, respectively.

For `CCN(CC)CCOc1ccc2c(=O)c3ccc(Cl)cc3n(CCN(CC)CC)c2c1` [T3.5, 3-(2-diethylaminoethoxy)-6-chloro-10-(2-diethylaminoethyl)-9-acridone], the half-maximal inhibitory concentration (IC50) in series [1] (Table 2, average of 4 independent experiments, read-out: IC50, D6) came out at 50 nM. Besides, the IC50 in series [1] (Table 4, read-out: IC50 P. falciparum D6) was 44 nM. Further, the Ki in series [2] was over 10000 nM. Moreover, in series [3], the ED50 dose stood at 56 mg/kg/day, the ED75 dose worked out at 70 mg/kg/day and the ED90 dose is 88 mg/kg/day. The most abundant metabolites result in series [4] is on record as “de-ethylated products”. In addition, the “Heme-binding Ka” value in series [5] is reported as 7.1 10^4 M^−1.
